Experiments:
Mimosa pudica [1] = experiment: Herbicidal activity against Mimosa pudica in Abelmoschus esculentus plots assessed as weed recovery at 0.33 kg a.i/ha after 2 weeks (reference value: 60.1 +/- 0.46 %); type: functional
Ageratum conyzoides [2] = experiment: Herbicidal activity against Ageratum conyzoides in Abelmoschus esculentus plots assessed as weed cover at 1.32 kg a.i/ha after 2 weeks (reference value: 63.5 +/- 0.29 %); type: functional
Ageratum conyzoides [3] = experiment: Herbicidal activity against Ageratum conyzoides in Abelmoschus esculentus plots assessed as minor weed growth at 1.32 kg a.i/ha after 2 weeks; type: functional
Corchorus olitorius [4] = experiment: Phytotoxicity in Corchorus olitorius assessed as crop seedling injury at 0.66 kg a.i/ha after 2 weeks relative to untreated control; type: organism-based; conditions: in vivo, 336 h
Chromolaena odorata [5] = experiment: Herbicidal activity against Chromolaena odorata in Corchorus olitorius plots assessed as weed cover at 0.99 kg a.i/ha after 2 weeks (reference value: 81.7 +/- 0.43 %); type: functional
Synedrella nodiflora [6] = experiment: Herbicidal activity against Synedrella nodiflora in Corchorus olitorius plots assessed as weed cover at 1.32 kg a.i/ha after 2 weeks (reference value: 81.7 +/- 0.43 %); type: functional
Corchorus olitorius [7] = experiment: Phytotoxicity in Corchorus olitorius assessed as root length at 1.32 kg a.i/ha applied as solution after 7 weeks (reference value: 14.3 +/- 1.06 mm); type: organism-based; conditions: in vivo, other, 1176 h
Corchorus olitorius [8] = experiment: Phytotoxicity in Corchorus olitorius assessed as shoot length at 1.32 kg a.i/ha treated to soil after 7 weeks (reference value: 23.7 +/- 0.10 mm); type: organism-based; conditions: in vivo, other, 1176 h
Euphorbia heterophylla [9] = experiment: Herbicidal activity against Euphorbia heterophylla in Corchorus olitorius plots assessed as weed cover at 1.32 kg a.i/ha after 2 weeks (reference value: 81.7 +/- 0.43 %); type: functional
Talinum fruticosum [10] = experiment: Herbicidal activity against Talinum fruticosum in Corchorus olitorius plots assessed as weed cover at 0.99 kg a.i/ha after 7 weeks (reference value: 1.7 +/- 0.56 %); type: functional
Commelina diffusa = experiment: Herbicidal activity against Commelina diffusa in Corchorus olitorius plots assessed as weed recovery at 0.66 kg a.i/ha after 2 weeks (reference value: 78.3 +/- 0.74 %); type: functional
Euphorbia heterophylla [11] = experiment: Herbicidal activity against Euphorbia heterophylla in Corchorus olitorius plots assessed as major weed growth at 0.33 kg a.i/ha after 2 weeks; type: functional
Talinum fruticosum [12] = experiment: Herbicidal activity against Talinum fruticosum in Corchorus olitorius plots assessed as weed recovery at 0.99 kg a.i/ha after 2 weeks (reference value: 78.3 +/- 0.74 %); type: functional
Abelmoschus esculentus [13] = experiment: Phytotoxicity in Abelmoschus esculentus assessed as seedling injury at 1.32 kg a.i/ha applied as solution after 7 weeks relative to control; type: organism-based; conditions: in vivo, other, 1176 h
Corchorus olitorius [14] = experiment: Phytotoxicity in Corchorus olitorius assessed as root length at 0.33 kg a.i/ha treated to soil after 7 weeks (reference value: 16.9 +/- 0.09 mm); type: organism-based; conditions: in vivo, other, 1176 h
Euphorbia heterophylla [15] = experiment: Herbicidal activity against Euphorbia heterophylla in Corchorus olitorius plots assessed as weed cover at 0.66 kg a.i/ha after 2 weeks (reference value: 81.7 +/- 0.43 %); type: functional
Calopogonium mucunoides [16] = experiment: Herbicidal activity against Calopogonium mucunoides in Abelmoschus esculentus plots assessed as weed recovery at 1.32 kg a.i/ha after 2 weeks (reference value: 60.1 +/- 0.46 %); type: functional
[17] = tested on: Rottboellia cochinchinensis; experiment: Herbicidal activity against Rottboellia cochinchinensis in Corchorus olitorius plots assessed as major weed growth at 0.33 kg a.i/ha after 2 weeks; type: functional
Euphorbia heterophylla [18] = experiment: Herbicidal activity against Euphorbia heterophylla in Abelmoschus esculentus plots assessed as weed cover at 0.33 kg a.i/ha after 2 weeks (reference value: 63.5 +/- 0.29 %); type: functional
Corchorus olitorius [19] = experiment: Phytotoxicity in Corchorus olitorius assessed as seedling injury at 0.33 kg a.i/ha applied as solution after 7 weeks relative to control; type: organism-based; conditions: in vivo, other, 1176 h
Euphorbia heterophylla [20] = experiment: Herbicidal activity against Euphorbia heterophylla in Corchorus olitorius plots assessed as weed cover at 1.32 kg a.i/ha after 7 weeks (reference value: 1.7 +/- 0.56 %); type: functional
Corchorus olitorius [21] = experiment: Phytotoxicity in Corchorus olitorius assessed as shoot length at 0.99 kg a.i/ha treated to soil after 7 weeks (reference value: 23.7 +/- 0.10 mm); type: organism-based; conditions: in vivo, other, 1176 h
Ageratum conyzoides [22] = experiment: Herbicidal activity against Ageratum conyzoides in Corchorus olitorius plots assessed as weed cover at 0.33 kg a.i/ha after 7 weeks (reference value: 1.7 +/- 0.56 %); type: functional
Abelmoschus esculentus [23] = experiment: Phytotoxicity in Abelmoschus esculentus assessed as crop seedling injury at 1.32 kg a.i/ha after 2 weeks relative to untreated control; type: organism-based; conditions: in vivo, 336 h
Calopogonium mucunoides [24] = experiment: Herbicidal activity against Calopogonium mucunoides in Corchorus olitorius plots assessed as weed cover at 1.32 kg a.i/ha after 4 weeks (reference value: 20.1+/- 0.57 %); type: functional
Cyperus rotundus [25] = experiment: Herbicidal activity against Cyperus rotundus in Corchorus olitorius plots assessed as weed cover at 0.66 kg a.i/ha after 7 weeks (reference value: 1.7 +/- 0.56 %); type: functional
Ageratum conyzoides [26] = experiment: Herbicidal activity against Ageratum conyzoides in Abelmoschus esculentus plots assessed as weed cover at 0.33 kg a.i/ha after 4 weeks (reference value: 22.6 +/- 0.49 %); type: functional
Abelmoschus esculentus [27] = experiment: Phytotoxicity in Abelmoschus esculentus assessed as root length at 0.33 kg a.i/ha treated to soil after 7 weeks (reference value: 2.9 +/- 0.45 mm); type: organism-based; conditions: in vivo, other, 1176 h
Euphorbia heterophylla [28] = experiment: Herbicidal activity against Euphorbia heterophylla in Abelmoschus esculentus plots assessed as weed recovery at 1.32 kg a.i/ha after 2 weeks (reference value: 60.1 +/- 0.46 %); type: functional
Synedrella nodiflora [29] = experiment: Herbicidal activity against Synedrella nodiflora in Abelmoschus esculentus plots assessed as weed cover at 0.99 kg a.i/ha after 4 weeks (reference value: 22.6 +/- 0.49 %); type: functional
Corchorus olitorius [30] = experiment: Phytotoxicity in Corchorus olitorius assessed as root length at 0.66 kg a.i/ha treated to soil after 7 weeks (reference value: 16.9 +/- 0.09 mm); type: organism-based; conditions: in vivo, other, 1176 h
Calopogonium mucunoides [31] = experiment: Herbicidal activity against Calopogonium mucunoides in Corchorus olitorius plots assessed as weed recovery at 0.33 kg a.i/ha after 2 weeks (reference value: 78.3 +/- 0.74 %); type: functional
Mimosa pudica [32] = experiment: Herbicidal activity against Mimosa pudica in Abelmoschus esculentus plots assessed as minor weed growth at 0.33 kg a.i/ha after 2 weeks; type: functional
Abelmoschus esculentus [33] = experiment: Phytotoxicity in Abelmoschus esculentus assessed as root length at 1.32 kg a.i/ha treated to soil after 7 weeks (reference value: 2.9 +/- 0.45 mm); type: organism-based; conditions: in vivo, other, 1176 h
Synedrella nodiflora [34] = experiment: Herbicidal activity against Synedrella nodiflora form in Abelmoschus esculentus plots assessed as minor weed growth at 0.66 kg a.i/ha after 2 weeks; type: functional
Chromolaena odorata [35] = experiment: Herbicidal activity against Chromolaena odorata in Corchorus olitorius plots assessed as weed cover at 1.32 kg a.i/ha after 4 weeks (reference value: 20.1+/- 0.57 %); type: functional
Cyperus rotundus [36] = experiment: Herbicidal activity against Cyperus rotundus in Corchorus olitorius plots assessed as minor weed growth at 0.66 kg a.i/ha after 2 weeks; type: functional

In the case of `CCC(CC)Nc1c([N+](=O)[O-])cc(C)c(C)c1[N+](=O)[O-]` [PENDIMETHALIN], the Activity (Mimosa pudica [1]) is reported as 39.2%, the Activity (Ageratum conyzoides [2]) is reported as 45% and the Activity (Ageratum conyzoides [3]) is reported as 1 /m2. The Activity (Corchorus olitorius [4]) was 41.7%, the Activity (Chromolaena odorata [5]) was 51.7% and the Activity (Synedrella nodiflora [6]) was 41.7%. The Activity (Corchorus olitorius [7]) was 2.4 mm, the Activity (Corchorus olitorius [8]) was 19.4 mm and the Activity (Euphorbia heterophylla [9]) was 41.7%. For the same compound, the Activity (Talinum fruticosum [10]) was 95%, the Activity (Commelina diffusa) was 33.3% and the Activity (Euphorbia heterophylla [11]) was 31 /m2. It also gave an Activity (Talinum fruticosum [12]) of 21.7%, an Activity (Abelmoschus esculentus [13]) of 56.8% and an Activity (Corchorus olitorius [14]) of 14.2 mm. The Activity (Euphorbia heterophylla [15]) was 51.7%, the Activity (Calopogonium mucunoides [16]) was 33.2% and the Activity [17] was 31 /m2. The Activity (Euphorbia heterophylla [18]) was 56.8%, the Activity (Corchorus olitorius [19]) was 18.3% and the Activity (Euphorbia heterophylla [20]) was 95%. It also gave an Activity (Corchorus olitorius [21]) of 22.5 mm, an Activity (Ageratum conyzoides [22]) of 100% and an Activity (Abelmoschus esculentus [23]) of 53.8%. It also gave an Activity (Calopogonium mucunoides [24]) of 33.3%, an Activity (Cyperus rotundus [25]) of 100% and an Activity (Ageratum conyzoides [26]) of 53.8%. It also gave an Activity (Abelmoschus esculentus [27]) of 3 mm, an Activity (Euphorbia heterophylla [28]) of 33.2% and an Activity (Synedrella nodiflora [29]) of 39.2%. The Activity (Corchorus olitorius [30]) was 13.7 mm, the Activity (Calopogonium mucunoides [31]) was 31.7% and the Activity (Mimosa pudica [32]) was 1 /m2. The Activity (Abelmoschus esculentus [33]) was 1.5 mm, the Activity (Synedrella nodiflora [34]) was 1 /m2 and the Activity (Chromolaena odorata [35]) was 33.3%. The Activity (Cyperus rotundus [36]) was 1 /m2.

— ChEMBL document CHEMBL3044789, “Comparing weed and crop seedling response to pre-emergence pendimethalin application in Corchorus olitorius and Abelmoschus esculentus” (Crop Prot, 2006)
